# Data from PMC3168589 (The European journal of neuroscience, 2011).
# Entries after “also recorded” stand apart in the source; their conditions may differ. Like-named read-outs stand apart in the source and are kept apart here. The star is where a group is joined. Myristoyl = CCCCCCCCCCCCCC(=O)*
# Assays:
# [1] = system: CREB phosphorylation in hippocampal pyramidal neurons; assay: CREB phosphorylation; type: cell-based, rat (Sprague-Dawley, 1- to 2-d-old pups); conditions: for concentrations inducing pCREB signal statistically different from vehicle: CRF F5,184 = 36.59, P < 0.001, UCN F5,175 = 23.00, P < 0.001; for τ of pCREB increase (time course): CRF df = 128, R^2 = 0.58, UCN df = 193, R^2 = 0.3, nonlinear curve fit
# [2] = system: CREB phosphorylation in hippocampal neurons; conditions: 10 μM H89, hippocampal neurons; ref Bayatti et al., 2003; cited from earlier work
# [3] = system: cAMP in hippocampal pyramidal neurons; assay: cAMP assay; type: cell-based, rat (Sprague-Dawley, 1- to 2-d-old pups); conditions: ISO 10 μM, 15 min, with IBMX 75 μM; positive control; P < 0.001 vs. '0 min'
# [4] = target: CRFR1; conditions: read-out: Ki for CRFR1, ref Perrin et al., 1993; cited from earlier work
# [5] = system: CRFR1α; conditions: stably transfected cell lines; ref Grammatopoulos et al., 2000; cited from earlier work
# [6] = system: hippocampal neurons; conditions: 2002, cited from earlier work
# [7] = system: MAPK signaling in human myocytes; conditions: UCN, but not CRF, ref Grammatopoulos et al., 2000; cited from earlier work
# [8] = system: CRFR1; conditions: modified yeast cell screen; ref Ladds et al., 2003; cited from earlier work
compound,measurement,setting,value
CCCCN(CC)c1nc(C)nc2c1c(C)cn2-c1c(C)cc(C)cc1C [CP154526],effect on STR-induced CREB phosphorylation,"[1]; CP154526 (100 nM) with STR 70 nM, F3,117 = 55.29, P < 0.001",blocked
O=S(=O)(NCCNC/C=C/c1ccc(Br)cc1)c1cccc2cnccc12 [H89],effect on CRF-induced CREB phosphorylation,"[1]; H89 2 μM, CRF 40 nM, F3,105 = 44.94, P > 0.05",did not block; also recorded: failed to block
same,effect on UCN-induced CREB phosphorylation,"[1]; H89 2 μM, UCN 40 nM, F3,118 = 27.19, P > 0.05",failed to block; also recorded: did not block
same,involvement of PKA in CRF-induced CREB phosphorylation,[2],implicated PKA in CRF-induced CREB phosphorylation
"CC(C)NCC(O)c1ccc(O)c(O)c1 (stereo not shown) [ISO, isoproterenol]",cAMP increase,[3],significantly increased cAMP levels
COc1cccc(-c2cc(=O)c3ccccc3o2)c1N [PD98059],effect on CRF-induced CREB phosphorylation,"[1]; PD98059 25 μM, CRF 40 nM, F3,86 = 30.25, P > 0.05",failed to affect; also recorded: unaffected
same,effect on STR-induced CREB phosphorylation,"[1]; PD98059 (25 μM), STR (70 nM), F3,122 = 51.88, P > 0.05, data not shown",unaffected
same,effect on UCN-induced CREB phosphorylation,"[1]; PD98059 (25 μM), UCN 40 nM, F3,126 = 31.29, P < 0.001","attenuated; also recorded: attenuated, but did not block"
Nc1ncnc2c1ncn2C1CCCO1 (stereo not shown) [SQ22536],effect on CRF-induced CREB phosphorylation,"[1]; SQ22536 90 μM, CRF 40 nM, F3,83 = 22.02, P > 0.05",no effect; also recorded: failed to affect
same,effect on UCN-induced CREB phosphorylation,"[1]; SQ22536 90 μM, UCN 40 nM, F3,113 = 25.34, P > 0.05",no effect; also recorded: failed to affect
N#CC(=C(/N)Sc1ccccc1N)/C(C#N)=C(/N)Sc1ccccc1N [U0126],effect on CRF-induced CREB phosphorylation,"[1]; U0126 10 μM, CRF 40 nM, F3,78 = 18.69, P > 0.05",failed to affect; also recorded: unaffected
same,effect on STR-induced CREB phosphorylation,"[1]; U0126 (10 μM), STR (70 nM), F3,126 = 43.18, P > 0.05, data not shown",unaffected
same,effect on UCN-induced CREB phosphorylation,"[1]; U0126 (10 μM), UCN 40 nM, F3,128 = 28.68, P < 0.001","attenuated; also recorded: attenuated, but did not block"
O=C1OC2(c3ccccc31)c1ccc(O)c(O)c1Oc1c2ccc(O)c1O [gallein],effect on CRF-induced CREB phosphorylation,"[1]; gallein 75 μM, CRF 40 nM, 15 min, F3,117 = 30.17, P < 0.001",blocked
same,effect on UCN-induced CREB phosphorylation,"[1]; gallein 75 μM, UCN 40 nM, 15 min, F3,118 = 21.74, P < 0.001",blocked
"PKI 14-22 amide myristoylated: second PKA inhibitor (Myristoyl-SGRTGRRNA-NH2; SMILES CCCCCCCCCCCCCC(=O)N[C@@H](CO)C(=O)NCC(=O)N[C@@H](CCCNC(=N)N)C(=O)N[C@H](C(=O)NCC(=O)N[C@@H](CCCNC(=N)N)C(=O)N[C@@H](CCCNC(=N)N)C(=O)N[C@@H](CC(N)=O)C(=O)N[C@@H](C)C(N)=O)[C@@H](C)O; UniProt P61925 14-22, looked up, fragment)",effect on CRF-induced CREB phosphorylation,"[1]; PKI 14-22 amide myristoylated 1 μM, CRF 40 nM, F3,133 = 38.91, P > 0.05, data not shown",failed to block
same,effect on UCN-induced CREB phosphorylation,"[1]; PKI 14-22 amide myristoylated 1 μM, UCN 40 nM, F3,113 = 39.24, P > 0.05, data not shown",failed to block
cholera toxin [CTX],effect on CRF-induced CREB phosphorylation,[1],abolished; also recorded: blocked
same,effect on UCN-induced CREB phosphorylation,[1],abolished; also recorded: blocked
human/rat corticotropin releasing factor [CRF],Ki,[4],5.2 to 11 nM
same,"cAMP activation, CRF compared with UCN",[5],induce cAMP activation equally
same,concentrations inducing pCREB signal statistically different from vehicle,[1],≥ 40 nM
same,τ of pCREB increase (time course),[1],~ 10 min
same,effect on hippocampal neuron excitability,"[6]; ref Aldenhoff et al., 1983, Blank et al.",rapidly increases hippocampal neuron excitability
same,effect on hippocampal LTP,[6]; ref Blank et al.,enhances hippocampal LTP
pertussis toxin [PTX],effect on UCN-induced CREB phosphorylation,"[1]; PTX 500 ng/mL, 18 hr pre-treatment, UCN 40 nM, F3,116 = 40.60, P > 0.05",did not affect
rat urocortin I [UCN],"cAMP activation, CRF compared with UCN",[5],induce cAMP activation equally
same,concentrations inducing pCREB signal statistically different from vehicle,[1],≥ 40 nM
same,τ of pCREB increase (time course),[1],~ 7 min
same,activation of MAPK signaling,[7],activates MAPK signaling
same,CRFR1-dependent G protein activation,[8],CRFR1-dependent activation of Gαq
